Results as given in patent US20040097594A1 (priority 1998, published 2004).
pIC50, pKi: −log10 of the molar value. Read-outs that look alike come from different tables or passages of the source.

Experiments:
[1] = test system: HIV-1 (strain IIIB); assay: microbe, parasite or virus in culture; type: cell-based; conditions: lower line of each compound's entry, read-out: IC50 (MT-4 cells)
[2] = molecular target: HIV-1 protease (Human immunodeficiency virus type 1 group M subtype B, UniProt P04585); assay: biochemical; conditions: HIV-1 protease; upper line of each compound's entry; read-out: Ki (enzyme)
[3] = Human immunodeficiency virus 1, 120 h, MT4 cells infected with HIV-1 strain IIIB, 5 days

COc1ccc(S(=O)(=O)N(C[C@@H](O)[C@H](Cc2ccccc2)NC(=O)OC2CO[C@H]3OCC[C@@H]23)OC2CCOCC2)cc1 (stereo partly drawn) [Compound 73, (3R,3aS,6aR)hexahydrofuro[2,3-b]furan-3-yl N-(1S,2R)-1-benzyl-2-hydroxy-3-[[(4-methoxyphenyl)sulfonyl](tetrahydro-2H -pyran-4-yloxy)amino]propylcarbamate]
pIC50 [1, 3]: ≥ 7.00
pKi [2]: > 9.00

COc1ccc(S(=O)(=O)N(C[C@@H](O)[C@H](Cc2ccccc2)NC(=O)OC2COCOC2)OC2CCOCC2)cc1 [Compound 74, 1,3-dioxan-5-yl N-(1S,2R)-1-benzyl-2-hydroxy-3-[[(4-methoxyphenyl)sulfonyl](tetrahydro-2H-pyran-4-yloxy)amino]propylcarbamate]
pIC50 [1, 3]: ≥ 7.00
pKi [2]: > 9.00

COc1ccc(S(=O)(=O)N(C[C@@H](O)[C@H](Cc2ccccc2)NC(=O)c2cccc(O)c2C)OC2CCOCC2)cc1 [Compound 75, N-(1S,2R)-1-benzyl-2-hydroxy-3-[[(4-methoxyphenyl)sulfonyl](tetrahydro-2H-pyran-4-yloxy)amino]propyl-3-hydroxy-2-methylbenzamide]
pIC50 [1, 3]: < 6.30
pKi [2]: > 9.00

COc1ccc(S(=O)(=O)N(C[C@@H](O)[C@H](Cc2ccccc2)NC(=O)[C@H](CC(N)=O)NC(=O)c2ccc3ccccc3n2)OC2CCOCC2)cc1 [Compound 76, (2S)-N-(1S,2R)-1-benzyl-2-hydroxy-3-[[(4-methoxyphenyl)sulfonyl](tetrahydro-2H-pyran-4-yloxy)amino]propyl-2-[(2-quinolinylcarbonyl)amino]butanediamide]
pIC50 ([1]; Human immunodeficiency virus 1, IIIB, MT4, 120 h, […]): 6.30 to 7.00
pKi [2]: > 9.00

NCCNc1cccc(S(=O)(=O)N(CC(O)C(Cc2ccccc2)NC(=O)OC2COC3OCCC23)OC2CCCC2)c1 [Compound 83, (3R,3aS,6aR)hexahydrofuro[2,3-b]furan-3-yl N-(1S,2R)-3-[(3[(2-aminoethyl)amino]phenylsulfonyl)(cyclopentyloxy)amino]-1-benzyl-2-hydroxypropylcarbamate and (3S,3aR,6aS)hexahydrofuro[2,3-b]furan-3-yl N-(1S,2R)-3-[(3[(2-aminoethyl)amino]phenylsulfonyl)(cyclopentyloxy)amino]-1-benzyl-2-hydroxypropylcarbamate]
pIC50 [1, 3]: 6.30 to 7.00
pKi [2]: > 9.00

N#CCNc1cccc(S(=O)(=O)N(CC(O)C(Cc2ccccc2)NC(=O)OC2COC3OCCC23)OC2CCCC2)c1 [Compound 86, (3R,3aS,6aR)hexahydrofuro[2,3-b]furan-3-yl N-(1S,2R)-1-benzyl-3-[(3-[(cyanomethyl)amino]phenylsulfonyl)(cyclopentyloxy)amino]-2-hydroxypropylcarbamate and (3S,3aR,6aS)hexahydrofuro[2,3-b]furan-3-yl N-(1S,2R)-1-benzyl-3-[(3-[(cyanomethyl)amino]phenylsulfonyl)(cyclopentyloxy)amino]-2-hydroxypropylcarbamate]
pIC50 [1, 3]: ≥ 7.00
pKi [2]: > 9.00

O=C(NC(Cc1ccccc1)C(O)CN(OC1CCCC1)S(=O)(=O)c1cccc(NCC(=O)N2CCOCC2)c1)OC1COC2OCCC12 [Compound 87, (3R,3aS,6aR)hexahydrofuro[2,3-b]furan-3-yl N-(1S,2R)-1-benzyl-3-[(cyclopentyloxy)(3-[(2-morpholino-2-oxoethyl)amino]phenylsulfonyl)amino]-2-hydroxypropylcarbamate and (3S,3aR,6aS)hexahydrofuro[2,3-b]furan-3-yl N-(1S,2R)-1-benzyl-3-[(cyclopentyloxy)(3-[(2-morpholino-2-oxoethyl)amino]phenylsulfonyl)amino]-2-hydroxypropylcarbamate]
pIC50 [1, 3]: ≥ 7.00
pKi [2]: > 9.00

O=C(N[C@@H](Cc1ccccc1)[C@H](O)CN(OC1CCCC1)S(=O)(=O)c1ccc2nccnc2c1)O[C@H]1CO[C@H]2OCC[C@H]21 [Compound 90]
pIC50 [1, 3]: ≥ 7.00
pKi [2]: > 9.00

O=C(N[C@@H](Cc1ccccc1)[C@H](O)CN(OC1CCCC1)S(=O)(=O)c1cccc(OCCO)c1)O[C@H]1CO[C@H]2OCC[C@H]21 [Compound 97, (3R,3aS,6aR)hexahydrofuro[2,3-b]furan-3-yl N-[(1S,2R)-1-benzyl-3-((cyclopentyloxy) [3-(2-hydroxyethoxy)phenyl]sulfonylamino)-2-hydroxypropyl]carbamate]
pIC50 [1, 3]: ≥ 7.00
pKi [2]: > 9.00

Nc1cccc(S(=O)(=O)N(C[C@@H](OP(=O)(O)O)[C@H](Cc2ccccc2)NC(=O)O[C@H]2CO[C@H]3OCC[C@H]32)OC2CCCC2)c1 [Compound 100, Phosphate ester of (3R,3aS,6aR)hexahydrofuro[2,3-b]furan-3-yl N-(1S,2R)-3-[[(3-aminophenyl)sulfonyl](cyclopentyloxy)amino]-1-benzyl-2-hydroxypropylcarbamate]
pIC50 [1, 3]: 6.30 to 7.00
pKi [2]: 7.00 to 8.00

COC(=O)Nc1n[nH]c2ccc(S(=O)(=O)N(C[C@@H](O)[C@H](Cc3ccccc3)NC(=O)OC3COCOC3)OC3CCCC3)cc12 [Compound 104, 1,3-Dioxan-5-yl-N-(1S,2R)-1-benzyl-3-[(cyclopentyloxy)(3-(carbomethoxyamino)-indazole-5-ylsulfonyl)amino]-2-hydroxypropylcarbamate]
pIC50 [1, 3]: ≥ 7.00
pKi [2]: > 9.00

CC(C)(C)OC(=O)N[C@@H](Cc1ccccc1)[C@H](O)CN(OC1CCCC1)S(=O)(=O)c1ccc2[nH]c(NC(=O)CCCl)nc2c1 [Compound 105, Tert-butyl N-(1S,2R)-1-benzyl-3-[(cyclopentyloxy)(2-[(3-chloropropionyl)amino]-1H-benzimidazol-5-ylsulfonyl)amino]-2-hydroxypropylcarbamate]
pIC50 [1, 3]: ≥ 7.00
pKi [2]: > 9.00

CC(C)(C)OC(=O)N[C@@H](Cc1ccccc1)[C@H](O)CN(OC1CCCC1)S(=O)(=O)c1ccc2nc(N)[nH]c2c1 [Compound 106, Tert-butyl N-(1S,2R)-1-benzyl-3-[(cyclopentyloxy)(2-amino-1H-benzimidazol-5-ylsulfonyl)amino]-2-hydroxypropylcarbamate]
pIC50 [1, 3]: 6.30 to 7.00
pKi [2]: > 9.00

Nc1n[nH]c2ccc(S(=O)(=O)N(C[C@@H](O)[C@H](Cc3ccccc3)NC(=O)O[C@H]3CO[C@H]4OCC[C@H]43)OC3CCCC3)cc12 [Compound 108, (3R,3aS,6aR)Hexahydrofuro[2,3-b]furan-3-yl N-(1S,2R)-1-benzyl-3-[(cyclopentyloxy) (3-aminoindazole-5-ylsulfonyl)amino]-2-hydroxypropylcarbamate]
pIC50 [1, 3]: < 6.30
pKi [2]: 7.00 to 8.00

COCOc1ccc(S(=O)(=O)N(C[C@@H](O)[C@H](Cc2ccccc2)NC(=O)OC(C)(C)C)OC2CCCC2)cc1 [Compound 109, tert-butyl N-((1S,2R)-1-benzyl-3-(cyclopentyloxy)[(4-methoxymethoxyphenyl)sulfonyl]amino-2-hydroxypropyl)carbamate]
pIC50 [1, 3]: ≤ 7.00
pKi [2]: 7.00 to 8.00

CC(C)(C)ON(C[C@@H](O)[C@H](Cc1ccccc1)NC(=O)O[C@H]1CCOC1)S(=O)(=O)c1ccccc1 [Compound 111, (3S) Tetrahydro-3-furanyl-N-(1S,2R)-1-benzyl-3-(tertbutyloxy)[(phenyl)sulfonyl]amino-2-hydroxypropylcarbamate]
pIC50 [1, 3]: < 6.00
pKi [2]: 8.00 to 9.00

CC(=O)Nc1nc2ccc(S(=O)(=O)N(C[C@@H](O)[C@H](Cc3ccccc3)NC(=O)OC3COCOC3)OC3CCCC3)cc2s1 [Compound 114]
pIC50 [1, 3]: ≥ 7.00
pKi [2]: > 9.00

COc1ccc(S(=O)(=O)N(C[C@@H](O)[C@H](Cc2ccccc2)NC(=O)C(C)CS(C)(=O)=O)OC2CCCC2)cc1 (stereo partly drawn) [Compound 115, 1N-(3-Methylsulfonylisobutyryl)-(1S,2R)-1-benzyl-3-(cyclopentyloxy)[4-methoxyphenylsulfonyl]amino-2-hydroxypropylamine]
pIC50 [1, 3]: 6.00 to 6.30
pKi [2]: < 7.00

COc1ccc(S(=O)(=O)N(C[C@@H](O)[C@H](Cc2ccccc2)NC(=O)O[C@H]2CO[C@@H]3OCC[C@@H]32)OC2CCCC2)cc1 [Compound 116]
pIC50 [1, 3]: 6.00 to 6.30
pKi [2]: < 7.00

COc1ccc(S(=O)(=O)N(C[C@@H](O)[C@H](Cc2ccccc2)NC(=O)O[C@@H]2CO[C@H]3OCC[C@H]32)OC2CCCC2)cc1 [Compound 117]
pIC50 [1, 3]: 6.00 to 6.30
pKi [2]: < 7.00

CC(C)ON(CC(O)C(Cc1ccccc1)NC(=O)OC1COC2OCCC12)S(=O)(=O)c1ccc2nc(NS(C)(=O)=O)n(Cc3ccccc3)c2c1 (stereo not drawn) [Compound 118]
pIC50 [1, 3]: 6.00 to 6.30
pKi [2]: < 7.00

CNc1cccc(S(=O)(=O)N(C[C@@H](OP(=O)(O)O)[C@H](Cc2ccccc2)NC(=O)O[C@H]2CO[C@H]3OCC[C@H]32)OC2CCCC2)c1 [Compound 119, Phosphate ester of (3R,3aS,6aR)hexahydrofuro[2,3-b]furan-3-yl N-(1S,2R)-3-[[(3-N-methylaminophenyl)sulfonyl](cyclopentyloxy)amino]-1-benzyl-2-hydroxypropylcarbamate]
pIC50 [1, 3]: < 6.00
pKi [2]: < 7.00

CNC(=O)NCCNc1cccc(S(=O)(=O)N(CC(O)C(Cc2ccccc2)NC(=O)OC2COC3OCCC23)OC2CCCC2)c1 [Compound 121, (3R,3aS,6aR)hexahydrofuro[2,3-b]furan-3-yl N-(1S,2R)-1-benzyl-3-[(cyclopentyloxy)(3-[(2-[(methylamino)carbonyl]aminoethyl)amino]phenylsulfonyl)amino]-2-hydroxypropylcarbamate and (3S,3aR,6aS)hexahydrofuro[2,3-b]furan-3-yl N-(1S,2R)-1-benzyl-3-[(cyclopentyloxy)(3-[(2-[(methylamino)carbonyl]aminoethyl)amino]phenylsulfonyl)amino]-2-hydroxypropylcarbamate]
pIC50 [1, 3]: 6.30 to 7.00
pKi [2]: > 9.00

COc1cccc(S(=O)(=O)N(C[C@@H](O)[C@H](Cc2ccccc2)NC(=O)O[C@H]2CO[C@H]3OCC[C@H]32)OC2CCCC2)c1 [Compound 123, (3R,3aS,6aR)hexahydrofuro[2,3-b]furan-3-yl N-[(1S,2R)-1-benzyl-3-((cyclopentyloxy)[(3-methoxyphenyl)sulfonyl]amino)-2-hydroxypropyl]carbamate]
pIC50 [1, 3]: ≥ 7.00
pKi [2]: > 9.00
